Measurements as given in patent publication US20260041744A1, “Methods for Treating Pompe Disease” (Amicus Therapeutics, Inc., priority 2022, published 2026).
Several values for one entry are separate records, joined by “and”; a condition that tells them apart may be missing. Equal values may be shown once.

How the values were obtained:
[1] = test system: adults with Pompe disease; test: Study ATB200-02: GSGC, 10MWT, TUG; assay type: in vivo, human
Source text: The study design includes 4 stages and 4 cohorts, with Stages 1 and 2 only for Cohort 1 and Stages 3 and 4 for all 4 cohorts (FIG. 79).
(§1) The 4 cohorts in the study are as follows: • Cohort 1: ERT-experienced (2 to 6 years) ambulatory subjects (11 subjects) • Cohort 2: ERT-experienced (≥2 years) non-ambulatory subjects (6 subjects) • Cohort 3: ERT-naïve ambulatory subjects (6 subjects)· • Cohort 4: ERT-experienced (≥7 years) ambulatory subjects (6 subjects)

[2] = test system: adult subjects with Pompe disease; test: Pooled Studies ATB200-02/03/07: MMT lower extremity score by exposure interval
[3] = test system: adults with Pompe disease; test: Study ATB200-02 (20 mg/kg cipaglucosidase alfa IV + 260 mg miglustat): 6MWT (6MWD, % predicted 6MWD); assay type: in vivo, human;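 also: Open-label Phase I/II trial, ambulatory cohorts only, values are changes from baseline or counts relative to the baseline walk test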
Procedure: The change from baseline (CFBL) in 6MWD, % predicted sitting FVC, manual muscle test (MMT) and biomarkers—urine glucose tetrasaccharide (Hex4) and serum creatine kinase (CK)—were assessed at regular intervals.
as §1
In Study ATB200-02, motor function was evaluated in all ambulatory subjects (ie, Cohorts 1, 3, and 4) (Table 23, FIGS. 46A-46D).

[4] = test system: adult subjects with late-onset Pompe disease (LOPD); test: Study ATB200-03 (PROPEL): sitting % predicted FVC; assay type: in vivo, human; settings: for absolute decline in percent-predicted FVC: 52 weeks; for CHG to Week 52 in sitting % predicted FVC, LS Mean: MMRM, actual time point of assessments; for Sitting % predicted FVC CHG, LS means (SE): Week 52, ANCOVA
Procedure: The test for the primary endpoint was conducted first at the 1-sided 0.025 significance level, and if significant, the ordered key secondary endpoints were similarly tested at the same significance level. The statistical significance of the key secondary endpoints was interpreted following a hierarchical testing order, each at the 1-sided alpha level of 0.025. […] Primary analyses of efficacy were performed using the mixed-effect model for repeated measures (MMRM) for 6MWD in Intent-to-treat Observed Population (ITT) that includes all available, observed data without any missing data imputation (ITT-OBS) and analysis of covariance (ANCOVA) for all other endpoints in the Intent-to-Treat-Last Observation Carried Forward (ITT-LOCF) Population. A nonparametric randomization based ANCOVA was specified as the first sensitivity analysis for 6MWD and FVC. […] For the purposes of data presentation in this document, 2-sided p-values are reported hereafter, except as otherwise noted.

[5] = Ambulatory ERT-experienced, 12 months
[6] = Ambulatory ERT-experienced, 24 months
[7] = Ambulatory ERT-experienced, 36 months
[8] = Ambulatory ERT-experienced, 48 months
[9] = Ambulatory ERT-naïve, 12 months
[10] = Ambulatory ERT-naïve, 24 months
[11] = Ambulatory ERT-naïve, 36 months
[12] = Ambulatory ERT-naïve, 48 months
[13] = Cohort 1 + Cohort 3 + Cohort 4, Month 12
[14] = Cohort 1 + Cohort 3 + Cohort 4, Month 24
[15] = Cohort 1 + Cohort 3 + Cohort 4, Month 36
[16] = Cohort 1 + Cohort 3 + Cohort 4, Month 48
[17] = Baseline, ITT, ERT-naïve Population excluding Subject 4005-2511
[18] = Week 52-LOCF, ERT-experienced Population
[19] = Week 52-LOCF, ERT-naïve Population excluding Subject 4005-2511
[20] = Week 52-LOCF, ITT excluding Subject 4005-2511

ATB200/miglustat: two-component therapy: cipaglucosidase alfa (ATB200) administered in conjunction with miglustat (AT2221), a stabilizer of cipaglucosidase alfa
10-Meter Walk Test, CFBL mean [1, 5]: −0.1 seconds
Gait, Stairs, Gowers, and Chair, CFBL mean [1, 5]: −1.3
Timed Up and Go, CFBL mean [1, 5]: -1.5 s
10-Meter Walk Test, CFBL mean [1, 6]: 1.0 seconds
Gait, Stairs, Gowers, and Chair, CFBL mean [1, 6]: −1.6
Timed Up and Go, CFBL mean [1, 6]: 0.1 s
10-Meter Walk Test, CFBL mean [1, 7]: 3.9 seconds
Gait, Stairs, Gowers, and Chair, CFBL mean [1, 7]: −1.1
Timed Up and Go, CFBL mean [1, 7]: -1.5 s
10-Meter Walk Test, CFBL mean [1, 8]: 0.6 seconds
Gait, Stairs, Gowers, and Chair, CFBL mean [1, 8]: −1.0
Timed Up and Go, CFBL mean [1, 8]: -0.6 s
10-Meter Walk Test, CFBL mean [1, 9]: −0.9 seconds
Gait, Stairs, Gowers, and Chair, CFBL mean [1, 9]: −0.8
Timed Up and Go, CFBL mean [1, 9]: -0.7 s
10-Meter Walk Test, CFBL mean [1, 10]: −0.5 seconds
Gait, Stairs, Gowers, and Chair, CFBL mean [1, 10]: −1.7
Timed Up and Go, CFBL mean [1, 10]: -1.0 s
10-Meter Walk Test, CFBL mean [1, 11]: 0.1 seconds
Gait, Stairs, Gowers, and Chair, CFBL mean [1, 11]: −2.0
Timed Up and Go, CFBL mean [1, 11]: 0.5 s
10-Meter Walk Test, CFBL mean [1, 12]: 0.7 seconds
Gait, Stairs, Gowers, and Chair, CFBL mean [1, 12]: −2.4
Timed Up and Go, CFBL mean [1, 12]: 0.3 s
GSGC CFB, mean ([1]; Cohort 1 + Cohort 3 + Cohort 4, 24-mo): −1.7
GSGC CFB, mean ([1]; Cohort 1 + Cohort 3 + Cohort 4, 48-mo): −1.5
GSGC CFB, mean ([1]; Cohort 1 + Cohort 4 (ERT-experienced), 24-mo, negative = improvement): −1.6
GSGC CFB, mean ([1]; Cohort 1 + Cohort 4 (ERT-experienced), 48-mo): −1.0
GSGC CFB, mean ([1]; Cohort 3 (ERT-naïve), 24-mo): −1.7
GSGC CFB, mean ([1]; Cohort 3 (ERT-naïve), 48-mo): −2.4
other measures of motor function incl. 10MWT, GSGC, TUG ([1]; ERT-experienced and ERT-naïve ambulatory subjects): improvements in other measures of motor function
mean (SD) change from baseline in MMT lower extremity score ([2]; exposure >15 to ≤24 months (n=101)): 1.73 (3.675)
mean (SD) change from baseline in MMT lower extremity score ([2]; exposure >24 months (n=65)): 1.98 (4.527)
mean (SD) change from baseline in MMT lower extremity score ([2]; exposure ≤15 months (n=135)): 1.36 (3.807)
motor function by 6MWT ([3]; 48 months, Cohorts 1, 3, 4): clinically meaningful improvements in motor function as measured by the 6MWT
6MWD, CFBL mean [3, 5]: 33.5 meters
Percent predicted 6MWD, CFBL mean [3, 5]: 6.1
6MWD, CFBL mean [3, 6]: 25.2 meters
Percent predicted 6MWD, CFBL mean [3, 6]: 5.4
6MWD, CFBL mean [3, 7]: 9.8 meters
Percent predicted 6MWD, CFBL mean [3, 7]: 3.4
6MWD, CFBL mean [3, 8]: 20.7 meters
Percent predicted 6MWD, CFBL mean [3, 8]: 5.9
6MWD, CFBL mean [3, 9]: 57.0 meters
Percent predicted 6MWD, CFBL mean [3, 9]: 10.7
6MWD, CFBL mean [3, 10]: 54.4 meters
Percent predicted 6MWD, CFBL mean [3, 10]: 11.0
6MWD, CFBL mean [3, 11]: 43.5 meters
Percent predicted 6MWD, CFBL mean [3, 11]: 9.0
6MWD, CFBL mean [3, 12]: 52.2 meters
Percent predicted 6MWD, CFBL mean [3, 12]: 11.7
6MWD change from baseline, mean [3, 13]: 39.9 meters
6MWD change from baseline, median [3, 13]: 27.4 meters
6MWD change from baseline, mean [3, 14]: 34.4 meters
6MWD change from baseline, median [3, 14]: 22.6 meters
6MWD change from baseline, mean [3, 15]: 19.7 meters
6MWD change from baseline, median [3, 15]: 24.2 meters
6MWD change from baseline, mean [3, 16]: 30.4 meters
6MWD change from baseline, median [3, 16]: 27.0 meters
6MWD change from baseline, mean ([3]; Cohort 1 + Cohort 4 (ERT-experienced), Month 12, listed as cipaglucosidase alfa/miglustat): 33 meters and 33.5 meters
6MWD change from baseline, mean ([3]; Cohort 1 + Cohort 4 (ERT-experienced), Month 24, listed as cipaglucosidase alfa/miglustat): 25 meters and 25.2 meters
6MWD change from baseline, mean ([3]; Cohort 1 + Cohort 4 (ERT-experienced), Month 36, listed as cipaglucosidase alfa/miglustat): 9.8 meters
6MWD change from baseline, mean ([3]; Cohort 1 + Cohort 4 (ERT-experienced), Month 48, listed as cipaglucosidase alfa/miglustat): 20 meters and 20.7 meters
6MWD change from baseline, median ([3]; Cohort 1 + Cohort 4, Month 12): 20.6 meters
6MWD change from baseline, median ([3]; Cohort 1 + Cohort 4, Month 24): 18.5 meters
6MWD change from baseline, median ([3]; Cohort 1 + Cohort 4, Month 36): 11.6 meters
6MWD change from baseline, median ([3]; Cohort 1 + Cohort 4, Month 48): 27.0 meters
6MWD change from baseline, mean ([3]; Cohort 3 (ERT-naïve), Month 12, listed as cipaglucosidase alfa/miglustat): 57 meters and 57.0 meters
6MWD change from baseline, mean ([3]; Cohort 3 (ERT-naïve), Month 24, listed as cipaglucosidase alfa/miglustat): 54 meters and 54.4 meters
6MWD change from baseline, mean ([3]; Cohort 3 (ERT-naïve), Month 36, listed as cipaglucosidase alfa/miglustat): 43 meters and 43.5 meters
6MWD change from baseline, mean ([3]; Cohort 3 (ERT-naïve), Month 48, listed as cipaglucosidase alfa/miglustat): 52 meters and 52.2 meters
6MWD change from baseline, median ([3]; Cohort 3, Month 12): 55.6 meters
6MWD change from baseline, median ([3]; Cohort 3, Month 24): 49.0 meters
6MWD change from baseline, median ([3]; Cohort 3, Month 36): 59.0 meters
6MWD change from baseline, median ([3]; Cohort 3, Month 48): 40.5 meters
patients whose 6MWD improved numerically from baseline (n/N) ([3]; ERT-experienced, 12 months): 13/16
patients whose 6MWD improved numerically from baseline (n/N) ([3]; ERT-experienced, 24 months): 9/13
patients whose 6MWD improved numerically from baseline (n/N) ([3]; ERT-experienced, 36 months): 6/12
patients whose 6MWD improved numerically from baseline (n/N) ([3]; ERT-experienced, 48 months): 6/9
patients with improvement from baseline in mean % predicted 6MWD ([3]; ERT-experienced, Month 48): 88.9%
patients whose 6MWD improved numerically from baseline (n/N) ([3]; ERT-naïve, 12 months): 6/6
patients whose 6MWD improved numerically from baseline (n/N) ([3]; ERT-naïve, 24 months): 6/6
patients whose 6MWD improved numerically from baseline (n/N) ([3]; ERT-naïve, 36 months): 4/5
patients whose 6MWD improved numerically from baseline (n/N) ([3]; ERT-naïve, 48 months): 4/4
patients with improvement from baseline in mean % predicted 6MWD ([3]; ERT-naïve, Month 48): 100%

alglucosidase alfa [reference compound]
Sitting % Predicted FVC Absolute Value, Mean [4, 17]: 79.07 % predicted
Sitting % predicted FVC Absolute Value, Median [4, 17]: 93.50 % predicted
FVC (% predicted) CFBL at Week 52 ([4]; ERT switch (ERT-experienced) population): −4.0 (0.9) % predicted
FVC (% predicted) CFBL at Week 52 ([4]; ERT treatment naive population): −3.6 % predicted
FVC (% predicted) CFBL at Week 52 ([4]; ERT treatment naive population, listed as Alglucosidase alfa): −3.6 (1.8) % predicted
absolute decline in percent-predicted FVC ([4]; ERT-experienced): 4.0%
mean change in sitting % predicted FVC from baseline to Week 52 ([4]; ERT-naïve excluding Subject 4005-2511): −3.6%
Change in sitting % predicted FVC baseline to Week 52, LS means (SE) from ANCOVA ([4]; ITT-LOCF, ERT-naïve Population excluding Subject 4005-2511): −2.54 (2.758) % predicted
CHG to Week 52 in sitting % predicted FVC, LS Mean ([4]; ITT-OBS excluding Subject 4005-2511 (overall)): −3.7
CHG to Week 52 in sitting % predicted FVC, LS Mean ([4]; ITT-OBS excluding Subject 4005-2511, ERT-naïve Subjects): −2.4
CHG to Week 52 in sitting % predicted FVC, LS Mean ([4]; ITT-OBS, ERT-experienced Subjects): −3.8
Sitting % predicted FVC Absolute Value, Mean (SD) [4, 18]: 63.47 (20.480) % predicted
Sitting % predicted FVC Absolute Value, Median [4, 18]: 62.00 % predicted
Sitting % predicted FVC CHG, Mean (SD) [4, 18]: −4.02 (5.009) % predicted
Sitting % predicted FVC CHG, Median [4, 18]: −3.25 % predicted
Sitting % Predicted FVC Absolute Value, Mean [4, 19]: 75.43 % predicted
Sitting % Predicted FVC CHG (change from baseline), Mean [4, 19]: −3.64 % predicted
Sitting % Predicted FVC CHG (change from baseline), Median [4, 19]: −3.00 % predicted
Sitting % predicted FVC Absolute Value, Median [4, 19]: 85.00 % predicted
Sitting % predicted FVC Absolute Value, Mean (SD) [4, 20]: 65.73 (21.109) % predicted
Sitting % predicted FVC Absolute Value, Median [4, 20]: 69.00 % predicted
Sitting % predicted FVC CHG, Mean (SD) [4, 20]: −3.95 (4.892) % predicted
Sitting % predicted FVC CHG, Median [4, 20]: −3.00 % predicted
Sitting % predicted FVC CHG, LS means (SE) ([4]; ITT-LOCF excluding Subject 4005-2511): −3.70 (0.953) % predicted
Sitting % predicted FVC CHG, LS means (SE) ([4]; ITT-LOCF, ERT-experienced Population): −3.64 (1.019) % predicted
FVC (% predicted) CFBL at Week 52 ([4]; overall ERT switch + ERT naïve population): −4.0 (0.8) % predicted
absolute decline in percent-predicted FVC ([4]; overall population): 4.0%
